In patent US6858591B2, “Antibiotic AA 896 analogs” (Wyeth Holdings Corporation, priority 2001, dated 2005):
≈ marks a conversion by molar mass, not a printed value.

Experiments:
Assay in all cases: In vitro MIC, broth dilution
Format in all cases: cell-based
C. albicans GC 3066 = details: Candida albicans, GC3066; C. albicans GC 3066; read-out: MIC
S. marcescens GC 4077 = details: Serratia marcescens, GC4077; S. marcescens GC 4077; read-out: MIC
E. faecalis GC 2242 = details: Enterococcus faecalis, GC2242; E. faecalis GC 2242; read-out: MIC
Procedure, shortened: (§1)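 Organisms were inoculated at 5×10^5 CFU/ml into Mueller-Hinton II containing antibiotic at 64-0.06 μg/ml, then incubated 18 hours at 35° C in ambient air. The MIC was the lowest concentration that inhibited growth.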

S. aureus GC 1131 = details: Staphylococcus aureus, GC1131; S. aureus GC 1131; read-out: MIC
Procedure, shortened: as §1

CNS GC 4537 = details: CNS GC 4537; read-out: MIC
Procedure, shortened: as §1

S. aureus GC 4536 = details: Staphylococcus aureus, GC4536; S. aureus GC 4536; read-out: MIC
Procedure, shortened: as §1

CNS GC 4547 = details: CNS GC 4547; read-out: MIC
Procedure, shortened: as §1

E. faecalis GC 842 = details: Enterococcus faecalis, GC842; E. faecalis GC 842; read-out: MIC
Procedure, shortened: as §1

CNS GC 4538 = details: CNS GC 4538; read-out: MIC
Procedure, shortened: as §1

E. faecalis GC 4555 = details: Enterococcus faecalis, GC4555; E. faecalis GC 4555; read-out: MIC
Procedure, shortened: as §1

S. aureus GC 2216 = details: Staphylococcus aureus, GC2216; S. aureus GC 2216; read-out: MIC
Procedure, shortened: as §1

E. coli GC 2203 = details: Escherichia coli, GC2203; E. coli GC 2203; read-out: MIC
M. morganii GC 4531 = details: Morganella morganii, GC4531; M. morganii GC 4531; read-out: MIC
P. aeruginosa GC 4532 = details: Pseudomonas aeruginosa, GC4532; P. aeruginosa GC 4532; read-out: MIC
K. pneumoniae GC 4534 = details: Klebsiella pneumoniae, GC4534; K. pneumoniae GC 4534; read-out: MIC
E. coli GC 3226 = details: Escherichia coli, GC3226; E. coli GC 3226; read-out: MIC
E. coli GC 4559 = details: Escherichia coli, GC4559; E. coli GC 4559; read-out: MIC
P. aeruginosa GC 2214 = details: Pseudomonas aeruginosa, GC2214; P. aeruginosa GC 2214; read-out: MIC
E. cloacae GC 3783 = details: Enterobacter cloacae, GC3783; E. cloacae GC 3783; read-out: MIC
E. coli GC 4560 = details: Escherichia coli, GC4560; E. coli GC 4560; read-out: MIC

Structure (SMILES)	MIC (C. albicans GC 3066) [µg/mL]	MIC (S. marcescens GC 4077) [µg/mL]	MIC (E. faecalis GC 2242) [µg/mL]	MIC (S. aureus GC 1131) [µg/mL]	MIC (CNS GC 4537) [µg/mL]	MIC (S. aureus GC 4536) [µg/mL]	MIC (CNS GC 4547) [µg/mL]	MIC (E. faecalis GC 842) [µg/mL]	MIC (CNS GC 4538) [µg/mL]	MIC (E. faecalis GC 4555) [µg/mL]	MIC (S. aureus GC 2216) [µg/mL]	MIC (E. coli GC 2203) [µg/mL]	MIC (M. morganii GC 4531) [µg/mL]	MIC (P. aeruginosa GC 4532) [µg/mL]	MIC (K. pneumoniae GC 4534) [µg/mL]	MIC (E. coli GC 3226) [µg/mL]	MIC (E. coli GC 4559) [µg/mL]	MIC (P. aeruginosa GC 2214) [µg/mL]	MIC (E. cloacae GC 3783) [µg/mL]	MIC (E. coli GC 4560) [µg/mL]
COc1ccc(Cn2c(=O)ccn([C@@H]3OC([C@H](O)[C@H](NCCCNC(=O)[C@H](CC(C)C)NC(=O)OCc4ccccc4)C(=O)OC(C)(C)C)[C@@H](O)[C@H]3O)c2=O)cc1 (stereo partly drawn) [Example 51, tert-Butyl (5S,12S)-12-[(R)-[(3S,4R,5R)-3,4-dihydroxy-5-(3-(4-methoxybenzyl)-2,4-dioxo-3,4-dihydro-1(2H)-pyrimidinyl)tetrahydro-2-furanyl](hydroxy)methyl]-5-isobutyl-3,6-dioxo-1-phenyl-2-oxa-4,7,11-triazatridecan-13-oate]	128 (≈ 160 µM)	> 128	128 (≈ 160 µM)	> 128	> 128	> 128	> 128	128 (≈ 160 µM)	128 (≈ 160 µM)	128 (≈ 160 µM)	> 128	> 128	128 (≈ 160 µM)	128 (≈ 160 µM)	> 128	> 128	> 128	128 (≈ 160 µM)	> 128	128 (≈ 160 µM)
COc1ccc(Cn2c(=O)ccn([C@@H]3OC([C@H](O)[C@H](NCCCNC(=O)[C@H](CC(C)C)NC(=O)OCc4ccccc4)C(=O)O)[C@@H](O)[C@H]3O)c2=O)cc1 (stereo partly drawn) [Example 52, (5S,12S)-12-[(R)-[(3S,4R,5R)-3,4-Dihydroxy-5-(3-(4-methoxybenzyl)-2,4-dioxo-3,4-dihydro-1(2H)-pyrimidinyl)tetrahydro-2-furanyl](hydroxy)methyl]-5-isobutyl-3,6-dioxo-1-phenyl-2-oxa-4,7,11-triazatridecan-13-oic acid]	128 (≈ 173 µM)	128 (≈ 173 µM)	128 (≈ 173 µM)	> 128	> 128	> 128	> 128	128 (≈ 173 µM)	> 128	128 (≈ 173 µM)	> 128	> 128	128 (≈ 173 µM)	128 (≈ 173 µM)	> 128	> 128	> 128	128 (≈ 173 µM)	> 128	128 (≈ 173 µM)
COc1ccc(Cn2c(=O)ccn([C@@H]3OC([C@H](O)[C@H](NCCCNC(=O)[C@@H](N)CC(C)C)C(=O)O)[C@@H](O)[C@H]3O)c2=O)cc1 (stereo partly drawn) [Example 53, (2S,3R)-2-[(3-{[(2S)-2-Amino-4-methylpentanoyl]amino}propyl)amino]-3-[(3S,4R,5R)-3,4-dihydroxy-5-(3-(4-methoxybenzyl)-2,4-dioxo-3,4-dihydro-1(2H)-pyrimidinyl)tetrahydro-2-furanyl]-3-hydroxypropanoic acid]	128 (≈ 211 µM)	> 128	128 (≈ 211 µM)	> 128	> 128	> 128	> 128	128 (≈ 211 µM)	> 128	128 (≈ 211 µM)	> 128	> 128	> 128	128 (≈ 211 µM)	> 128	> 128	> 128	128 (≈ 211 µM)	> 128	128 (≈ 211 µM)
COc1ccc(Cn2c(=O)ccn([C@@H]3OC([C@H](O)[C@H](NCCCNC(=O)[C@@H](N)CC(C)C)C(=O)OC(C)(C)C)[C@@H](O)[C@H]3O)c2=O)cc1 (stereo partly drawn) [Example 54, tert-Butyl (2S,3R)-2-[(3-{[(2S)-2-amino-4-methylpentanoyl]amino}propyl)amino]-3-[(3S,4R,5R)-3,4-dihydroxy-5-(3-(4-methoxybenzyl)-2,4-dioxo-3,4-dihydro-1(2H)-pyrimidinyl)tetrahydro-2-furanyl]-3-hydroxypropanoate]	> 128	> 128	128 (≈ 193 µM)	> 128	> 128	> 128	> 128	128 (≈ 193 µM)	> 128	> 128	> 128	> 128	128 (≈ 193 µM)	> 128	> 128	> 128	> 128	128 (≈ 193 µM)	> 128	128 (≈ 193 µM)
CC(C)C[C@H](NC(=O)OCc1ccccc1)C(=O)NCCCN[C@H](C(=O)O)[C@@H](O)C1O[C@@H](n2ccc(=O)[nH]c2=O)[C@H](O)[C@@H]1O (stereo partly drawn) [Example 55, (5S,12S)-12-[(R)-[(3S,4R,5R)-5-(2,4-Dioxo-3,4-dihydro-1(2H)-pyrimidinyl)-3,4-dihydroxy-tetrahydro-2-furanyl](hydroxy)methyl]-5-isobutyl-3,6-dioxo-1-phenyl-2-oxa-4,7,11-triazatridecan-13-oic acid]	128 (≈ 206 µM)	128 (≈ 206 µM)	128 (≈ 206 µM)	> 128	> 128	> 128	> 128	128 (≈ 206 µM)	> 128	128 (≈ 206 µM)	> 128	128 (≈ 206 µM)	128 (≈ 206 µM)	128 (≈ 206 µM)	128 (≈ 206 µM)	128 (≈ 206 µM)	> 128	128 (≈ 206 µM)	128 (≈ 206 µM)	128 (≈ 206 µM)
COc1ccc(Cn2c(=O)ccn([C@@H]3OC([C@H](O)[C@H](NCCCNC(=O)[C@@H](CC(C)C)NC(=O)OCc4ccccc4)C(=O)OC(C)(C)C)[C@@H](O[Si](C)(C)C(C)(C)C)[C@H]3O[Si](C)(C)C(C)(C)C)c2=O)cc1 (stereo partly drawn) [Example 56, tert-Butyl (5R,12S)-12-[(R)-[(3R,4R,5R)-3,4-bis{[tert-butyl(dimethyl)silyl]oxy}-5-(3-(4-methoxybenzyl)-2,4-dioxo-3,4-dihydro-1(2H)-pyrimidinyl)tetrahydro-2-furanyl](hydroxy)methyl]-5-isobutyl-3,6-dioxo-1-phenyl-2-oxa-4,7,11-triazatridecan-13-oate]	> 128	> 128	128 (≈ 125 µM)	> 128	> 128	> 128	> 128	> 128	> 128	> 128	> 128	> 128	128 (≈ 125 µM)	128 (≈ 125 µM)	> 128	> 128	> 128	128 (≈ 125 µM)	> 128	> 128
